Where two headings read alike, the source gives them in different places.

We go through 11 compounds from patent US20240166617A1, “PHOSPHOINOSITIDE 3 KINASE BETA INHIBITORS AND COMPOSITIONS AND METHODS THEREOF” (Geode Therapeutics Inc., priority 2021, published 2024).

The test system of this assay is phosphorylation of AKT in HCC70 cells. Put plainly: Cellular assay: phosphorylation of AKT in HCC70 cells (western blotting). Type of assay: cell-based. The conditions noted are these: Homo sapiens, HCC70, 1 h, HCC70 cells, compound 500 nM, 60 min, inhibition of Akt activity from band intensities. The method, then: Cellular activity of PI3Kβ inhibitors was determined by quantifying the phosphorylation of AKT in HCC70 cells. AKT phosphorylated at Ser473 and Thr308 were measured using western blotting and specific primary antibodies from Cell Signaling (CST), Danvers, MA. On day 1, HCC70 cells (ATCC #CRL-2315) were seeded into Falcon 12-well cell Culture Plate (Corning #353043) at 100,000 cells per well, in 1 ml complete culture medium (RPMI-1640, GIBCO #11875093) containing 10% heat inactivated FBS (GIBCO #10438026), 1% Pen-Strep (GIBCO #15140122) and incubated at 37° AC, 5% CO2 overnight. On day 2, compound (500 nM) or DMSO (0.1%, Sigma Aldrich #8418) was added and cells were further incubated for 60 min at 37° AC, 5% CO2 in a total volume of 1 ml fresh medium.
At the end of the cell treatment period, media were removed by aspiration and adherent cells were lysed in 100 uL RIPA buffer (Sigma Aldrich #R0278). Equal volume (15 uL) of proteins was resolved by SDS-PAGE and transferred to PVDF (Millipore #IPFL00010) membrane for immunoblot analysis. Primary antibodies to the following proteins were used for immunoblotting: phosphor-AKT (Ser473) (CST #4060), phosphor-AKT (Thr308) (CST #2965), total AKT (CST #9272). Secondary goat anti-rabbit IgG fluorophore conjugated antibody (Invitrogen #A21109) was used to visualize the indicated proteins on an Odyssey CLx imaging system (Li-Cor). Quantification of band intensities was performed using Odyssey 3.0 software. Inhibition of Akt activity was calculated by band intensities using the formula: […]
Index was evaluated by % of AI. Data represent Index+(20˜60%), ++(60%˜80%), +++(80%˜90%), and ++++>90%.

Where [1] appears, read: read-out: Index of AI (HCC70) p-AKT Thr 308.
The mark [2] stands for this setting: read-out: Index of AI (HCC70) p-AKT ser 473.

For the compound `CN(C)C1CCN(C(=O)c2cc(CN3CCc4c(F)cc(F)cc43)c3oc(N4CCOCC4)cc(=O)c3c2)C1` (stereo not shown) [Compound 43, 8-((4,6-difluoroindolin-1-yl)methyl)-6-(3-(dimethylamino)pyrrolidine-1-carbonyl)-2-morpholino-4H-chromen-4-one], the inhibition at 0.5 µM reads like this: under setting [1], 80 to 90%; under setting [2], 80 to 90%.

With `O=C(c1cc(CN2CCc3c(F)cc(F)cc32)c2oc(N3CCOCC3)cc(=O)c2c1)N1CCC1` [Compound 45, 6-(azetidine-1-carbonyl)-8-((4,6-difluoroindolin-1-yl)methyl)-2-morpholino-4H-chromen-4-one], the inhibition at 0.5 µM is over 90% under setting [1] and over 90% under setting [2].

Consider `CN(C)C1CN(C(=O)c2cc(CN3CCc4c(F)cc(F)cc43)c3oc(N4CCOCC4)cc(=O)c3c2)C1` [Compound 46, 8-((4,6-difluoroindolin-1-yl)methyl)-6-(3-(dimethylamino)azetidine-1-carbonyl)-2-morpholino-4H-chromen-4-one], for which the inhibition at 0.5 µM by setting is: under setting [1], 80 to 90%; under setting [2], 80 to 90%.

For the compound `CC(Nc1cc(F)cc(F)c1)c1cc(NC2=NC(C)(C)CO2)cn2c(=O)cc(N3CCOCC3)nc12` (stereo not shown) [Compound 47, 9-(1-((3,5-difluorophenyl)amino)ethyl)-7-((4,4-dimethyl-4,5-dihydrooxazol-2-yl)amino)-2-morpholino-4H-pyrido[1,2-a]pyrimidin-4-one], the inhibition at 0.5 µM reads like this: under setting [1], over 90%; under setting [2], over 90%.

Turning to `Cc1cc(CN2CCc3c(F)cccc32)c2nc(N3CCOCC3)cc(=O)n2c1` [Compound 52, 9-[(4-fluoroindolin-1-yl)methyl]-7-methyl-2-morpholino-pyrido[1,2-a]pyrimidin-4-one], the inhibition at 0.5 µM is, setting by setting: under setting [1], 60 to 80%; under setting [2], 60 to 80%.

Consider `Cc1cc(CN2c3cccc(F)c3CC2C)c2nc(N3CCOCC3)cc(=O)n2c1` (stereo not shown) [Compound 53, 9-((4-fluoro-2-methylindolin-1-yl)methyl)-7-methyl-2-morpholino-4H-pyrido[1,2-a]pyrimidin-4-one], for which the inhibition at 0.5 µM under setting [1] lay in the range of 60 to 80% and the inhibition at 0.5 µM under setting [2] was in the range of 60 to 80%.

`Cc1cc(CN2CCc3c(F)cc(F)cc32)c2nc(N3CCOCC3)cc(=O)n2c1` [Compound 54, 9-((4,6-difluoroindolin-1-yl)methyl)-7-methyl-2-morpholino-4H-pyrido[1,2-a]pyrimidin-4-one]: the inhibition at 0.5 µM under setting [1] lay in the range of 20 to 60% and the inhibition at 0.5 µM under setting [2] is 20 to 60%.

With `Cc1cc(CN2c3cc(F)cc(F)c3CC2C)c2nc(N3CCOCC3)cc(=O)n2c1` (stereo not shown) [Compound 55, 9-((4,6-difluoro-2-methylindolin-1-yl)methyl)-7-methyl-2-morpholino-4H-pyrido[1,2-a]pyrimidin-4-one], the inhibition at 0.5 µM runs as follows: under setting [1], 20 to 60%; under setting [2], 20 to 60%.

For `Cc1cc(CN2CCc3cc(F)ccc32)c2nc(N3CCOCC3)cc(=O)n2c1` [Compound 56, 9-((5-fluoroindolin-1-yl)methyl)-7-methyl-2-morpholino-4H-pyrido[1,2-a]pyrimidin-4-one], the inhibition at 0.5 µM by setting is: under setting [1], 60 to 80%; under setting [2], 60 to 80%.

As for `Cc1cc(CN2c3ccccc3CC2C)c2nc(N3CCOCC3)cc(=O)n2c1` (stereo not shown) [Compound 57, 7-methyl-9-((2-methylindolin-1-yl)methyl)-2-morpholino-4H-pyrido[1,2-a]pyrimidin-4-one], the inhibition at 0.5 µM is, setting by setting: under setting [1], 60 to 80%; under setting [2], 60 to 80%.

With `CC(Nc1cc(F)cc(F)c1)c1cc(Cc2nnc[nH]2)cc2c(=O)cc(N3CCOCC3)oc12` (stereo not shown) [Compound 60, 6-((4H-1,2,4-triazol-3-yl)methyl)-8-(1-((3,5-difluorophenyl)amino)ethyl)-2-morpholino-4H-chromen-4-one], the inhibition at 0.5 µM runs as follows: under setting [1], 80 to 90%; under setting [2], 80 to 90%.
